Reference: patent US20240165243A1, “EGFR DEGRADERS AND METHODS OF USE” (BeiGene Switzerland GmbH, priority 2021, published 2024)

System: EGFR (Del19/T790M/C797S)
Assay: Cell degradation HTRF assay, H1975-clone #28 cells
Format: cell-based
Conditions: H1975-clone #28 (Del19/T790M/C797S) cells, 16 h treatment; for DC50: HTRF, read-out: H1975-clone#28 DTC DC50; for H1975-clone#28 DTC Dmax (%): maximum percentage of degradation
Protocol: Cell Degradation of Example 124-189
H1975-#28 and H1975-#25 cells are treated with compounds diluted in 0.2% DMSO cell culture medium on day 2, incubate for 16 h, 37° C., 5% CO2. the final concentration of compounds in all assay is start with 10 uM, 5-fold dilution, total 8 doses were included.
After 16 h treatment, add HTRF lysis buffer to each well; seal the plate and incubate 1 hour at room temperature on a plate shaker; Once the cells are lysed, 16 μL of cell lysate are transferred to a PE 384-well HTRF detection plate; 4 μL of pre-mixed HTRF antibodies are added to each well; Cover the plate with a plate sealer, spin 1000 rpm for 1 min, Incubate overnight at room temperature; Read on BMG PheraStar with HTRF protocol (337 nm-665 nm-620 nm).
The inhibition (degradation) percentage of the compound was calculated by the following equation:
Inhibition percentage of Compound=100−100×(Signal−low control)/(High control−low control), wherein signal=each test compound group.
High control=Cell group with added DMSO and without compound, indicating microplate readings without EGFR degradation;
Dmax is the maximum percentage of inhibition (degradation).
The IC50 (DC50) value of a compound can be obtained by fitting the following equation
Y=Bottom+(TOP−Bottom)/(1+((IC50/X)^hillslope))
Wherein, X and Y are known values, and IC50, Hillslope, Top and Bottom are the parameters obtained by fitting with software. Y is the inhibition percentage (calculated from the equation), X is the concentration of the compound; IC50 is the concentration of the compound when the 50% inhibition is reached. The smaller the IC50 value is, the stronger the inhibitory ability of the compound is. Vice versa, the higher the IC50 value is, the weaker the ability the inhibitory ability of the compound is; Hillslope represents the slope of the fitted curve, generally around 1*; Bottom represents the minimum value of the curve obtained by data fitting, which is generally 0%±20%; Top represents the maximum value of the curve obtained by data fitting, which is generally 100%±20%. The experimental data were fitted by calculating and analyzing with Dotmatics data analysis software. When Dmax<50%, DC50 will be automatically assigned as larger than […].

Row | SMILES | DC50 [nM] | H1975-clone#28 DTC Dmax (%)
1 | CCc1cc(Nc2ncc(Br)c(Nc3cnc4ccc(F)cc4c3P(C)(C)=O)n2)c(OC)cc1N1CCC(N2CCN(CCc3cccc4c3n(C)c(=O)n4C3CCC(=O)NC3=O)CC2)CC1 (stereo not drawn) [Example 170, 3-(4-(2-(4-(1-(4-((5-bromo-4-((4-(dimethylphosphoryl)-6-fluoroquinolin-3-yl)amino)pyrimidin-2-yl)amino)-2-ethyl-5-methoxyphenyl)piperidin-4-yl)piperazin-1-yl)ethyl)-3-methyl-2-oxo-2,3-dihydro-1H-benzo[d]imidazol-1-yl)piperidine-2,6-dione] | 2.1 | 82
2 | CCc1cc(Nc2ncc(Br)c(Nc3cnc4ccccc4c3P(C)(C)=O)n2)c(OC)cc1N1CCC(N2CCN(CCc3cccc4c3oc(=O)n4C3CCC(=O)NC3=O)CC2)CC1 (stereo not drawn) [Example 188, 3-(7-(2-(4-(1-(4-((5-bromo-4-((4-(dimethylphosphoryl)quinolin-3-yl)amino)pyrimidin-2-yl)amino)-2-ethyl-5-methoxyphenyl)piperidin-4-yl)piperazin-1-yl)ethyl)-2-oxobenzo[d]oxazol-3(2H)-yl)piperidine-2,6-dione] | 0.8 | 84
3 | CCc1cc(Nc2ncc(Br)c(Nc3cnc4ccccc4c3P(C)(C)=O)n2)c(OC)cc1N1CCC(N2CCN(CCc3cc(F)c(C4CCC(=O)NC4=O)c(F)c3F)CC2)CC1 (stereo not drawn) [Example 180, 3-(4-(2-(4-(1-(4-((5-bromo-4-((4-(dimethylphosphoryl)quinolin-3-yl)amino)pyrimidin-2-yl)amino)-2-ethyl-5-methoxyphenyl)piperidin-4-yl)piperazin-1-yl)ethyl)-2,3,6-trifluorophenyl)piperidine-2,6-dione] | 2 | 83
4 | CCc1cc(Nc2ncc(Br)c(Nc3cnc4ccc(F)cc4c3P(C)(C)=O)n2)c(OC)cc1N1CCC(N2CCN(CCc3cc(F)c(C4CCC(=O)NC4=O)c(F)c3)CC2)CC1 (stereo not drawn) [Example 174, 3-(4-(2-(4-(1-(4-((5-bromo-4-((4-(dimethylphosphoryl)-6-fluoroquinolin-3-yl)amino)pyrimidin-2-yl)amino)-2-ethyl-5-methoxyphenyl)piperidin-4-yl)piperazin-1-yl)ethyl)-2,6-difluorophenyl)piperidine-2,6-dione] | 1.8 | 80
5 | CCOc1cc(N2CCC(N3CCN(CCc4ccc5c(c4)oc(=O)n5C4CCC(=O)NC4=O)CC3)CC2)c(CC)cc1Nc1ncc(Br)c(Nc2cnc3cc(F)ccc3c2P(C)(C)=O)n1 (stereo not drawn) [Example 133, 3-(6-(2-(4-(1-(4-((5-bromo-4-((4-(dimethylphosphoryl)-7-fluoroquinolin-3-yl)amino)pyrimidin-2-yl)amino)-5-ethoxy-2-ethylphenyl)piperidin-4-yl)piperazin-1-yl)ethyl)-2-oxobenzo[d]oxazol-3(2H)-yl)piperidine-2,6-dione] | 3 | 71
6 | CCc1cc(Nc2ncc(Br)c(Nc3cnc4ccccc4c3P(C)(C)=O)n2)c(OC)cc1N1CCC(N2CCN(CCc3ccc4c(c3)C(C)(C)C(=O)N4C3CCC(=O)NC3=O)CC2)CC1 (stereo not drawn) [Example 175, 3-(5-(2-(4-(1-(4-((5-bromo-4-((4-(dimethylphosphoryl)quinolin-3-yl)amino)pyrimidin-2-yl)amino)-2-ethyl-5-methoxyphenyl)piperidin-4-yl)piperazin-1-yl)ethyl)-3,3-dimethyl-2-oxoindolin-1-yl)piperidine-2,6-dione] | 5.5 | 47
7 | CCc1cc(Nc2ncc(Br)c(Nc3cnc4ccccc4c3P(C)(C)=O)n2)c(OC)cc1N1CCC(N2CCN(CCc3c(F)ccc4c3n(C)c(=O)n4C3CCC(=O)NC3=O)CC2)CC1 (stereo not drawn) [Example 159, 3-(4-(2-(4-(1-(4-((5-bromo-4-((4-(dimethylphosphoryl)quinolin-3-yl)amino)pyrimidin-2-yl)amino)-2-ethyl-5-methoxyphenyl)piperidin-4-yl)piperazin-1-yl)ethyl)-5-fluoro-3-methyl-2-oxo-2,3-dihydro-1H-benzo[d]imidazol-1-yl)piperidine-2,6-dione] | 1.4 | 85
8 | CCc1cc(Nc2ncc(Br)c(Nc3cnc4cc(F)ccc4c3P(C)(C)=O)n2)c(OC)cc1N1CCC(N2CCN(CCc3cc(F)c4c(c3)oc(=O)n4[C@H]3CCC(=O)NC3=O)CC2)CC1 [Example 151, (S)-3-(6-(2-(4-(1-(4-((5-bromo-4-((4-(dimethylphosphoryl)-7-fluoroquinolin-3-yl)amino)pyrimidin-2-yl)amino)-2-ethyl-5-methoxyphenyl)piperidin-4-yl)piperazin-1-yl)ethyl)-4-fluoro-2-oxobenzo[d]oxazol-3(2H)-yl)piperidine-2,6-dione] | 1.1 | 79
9 | CCc1cc(Nc2ncc(Br)c(Nc3cnc4ccccc4c3P(C)(C)=O)n2)c(OC)cc1N1CCC(N2CCN(C(=O)C3CC4(C3)CN(c3cc(F)c(C5CCC(=O)NC5=O)c(F)c3)C4)CC2)CC1 (stereo not drawn) [Example 178, 3-(4-(6-(4-(1-(4-((5-bromo-4-((4-(dimethylphosphoryl)quinolin-3-yl)amino)pyrimidin-2-yl)amino)-2-ethyl-5-methoxyphenyl)piperidin-4-yl)piperazine-1-carbonyl)-2-azaspiro[3.3]heptan-2-yl)-2,6-difluorophenyl)piperidine-2,6-dione] | 2.6 | 67
10 | CCc1cc(Nc2ncc(Br)c(Nc3cnc4cc(F)ccc4c3P(C)(C)=O)n2)c(OC)cc1N1CCC(N2CCN(CCc3cccc4c3n(C)c(=O)n4C3CCC(=O)NC3=O)CC2)CC1 (stereo not drawn) [Example 167, 3-(4-(2-(4-(1-(4-((5-bromo-4-((4-(dimethylphosphoryl)-7-fluoroquinolin-3-yl)amino)pyrimidin-2-yl)amino)-2-ethyl-5-methoxyphenyl)piperidin-4-yl)piperazin-1-yl)ethyl)-3-methyl-2-oxo-2,3-dihydro-1H-benzo[d]imidazol-1-yl)piperidine-2,6-dione] | 0.8 | 74
11 | CCc1cc(Nc2ncc(Br)c(Nc3cnc4ccccc4c3P(C)(C)=O)n2)c(OC)cc1N1CCC(N2CCN(CCc3ccc4c(c3)oc(=O)n4C3CCC(=O)NC3=O)CC2)CC1 (stereo not drawn) [Example 132, 3-(6-(2-(4-(1-(4-((5-bromo-4-((4-(dimethylphosphoryl)quinolin-3-yl)amino)pyrimidin-2-yl)amino)-2-ethyl-5-methoxyphenyl)piperidin-4-yl)piperazin-1-yl)ethyl)-2-oxobenzo[d]oxazol-3(2H)-yl)piperidine-2,6-dione] | 1 | 80
12 | CCc1cc(Nc2ncc(Br)c(Nc3cnc4ccccc4c3P(C)(C)=O)n2)c(OC)cc1N1CCC(N2CCN(C(=O)C3CN(c4cccc5c4C(C)(C)C(=O)N5C4CCC(=O)NC4=O)C3)CC2)CC1 (stereo not drawn) [Example 169, 3-(4-(3-(4-(1-(4-((5-bromo-4-((4-(dimethylphosphoryl)quinolin-3-yl)amino)pyrimidin-2-yl)amino)-2-ethyl-5-methoxyphenyl)piperidin-4-yl)piperazine-1-carbonyl)azetidin-1-yl)-3,3-dimethyl-2-oxoindolin-1-yl)piperidine-2,6-dione] | 4.6 | 65
